# Test results taken from US4760087A, “Phenol derivatives and pharmaceutical compositions containing these compounds” (Gruenenthal GmbH, priority 1985, dated 1988).
# Experiments:
# cyclooxygenase = target: T1, cyclooxygenase (Ovis aries, UniProt P05979); assay: Inhibition of cyclooxygenase in sheep seminal vesicle microsomes; format: biochemical; conditions: for Quotient IC50 II/IC50 I: cyclooxygenase IC50 (II) / 5-lipoxygenase IC50 (I); for IC50: sheep seminal vesicle microsomes, pH 7.5, 10 minutes, room temperature, read-out: IC50 for inhibition of cyclooxygenase (II)
# T1 construct: suspension of sheep seminal vesicle microsomes; from tissue; host or cells: sheep seminal vesicle microsomes
# T1 sequence (P05979 25-600): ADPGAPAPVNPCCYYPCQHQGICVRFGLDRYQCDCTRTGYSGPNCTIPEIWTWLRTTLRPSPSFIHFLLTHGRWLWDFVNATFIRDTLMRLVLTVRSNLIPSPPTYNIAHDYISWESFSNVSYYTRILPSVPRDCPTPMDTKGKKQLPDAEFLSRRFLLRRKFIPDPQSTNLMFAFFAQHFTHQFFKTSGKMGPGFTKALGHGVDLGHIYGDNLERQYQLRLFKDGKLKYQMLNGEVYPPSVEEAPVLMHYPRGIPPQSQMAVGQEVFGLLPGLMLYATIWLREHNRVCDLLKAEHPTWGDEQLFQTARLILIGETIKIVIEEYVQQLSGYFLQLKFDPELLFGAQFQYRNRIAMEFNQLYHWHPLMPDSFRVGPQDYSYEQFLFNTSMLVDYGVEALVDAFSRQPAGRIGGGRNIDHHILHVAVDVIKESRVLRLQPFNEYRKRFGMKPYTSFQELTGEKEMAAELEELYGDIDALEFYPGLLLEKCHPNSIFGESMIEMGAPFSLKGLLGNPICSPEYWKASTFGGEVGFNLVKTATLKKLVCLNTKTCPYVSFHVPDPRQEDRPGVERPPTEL
# Protocol: The effect of the test compounds on the activity of cyclooxygenase was tested usinfg a suspension of sheep seminal vesicle microsomes in 50 mM potassium phosphate buffer of pH 7.5 which was incubated for 10 minutes at room temperature with the test compound and [^14 C]-arachidonic acid. After acidification with glacial acetic acid the mixture was extracted with ethyl acetate and the residue obtained after evaporation of the extract separated by thin layer chromatography on plates precoated with silica gel using the solvent system ether/hexane/glacial acetic acid (50:50:1).
# 5-lipoxygenase = target: T2, 5-lipoxygenase (Rattus norvegicus, UniProt P12527); assay: Inhibition of 5-lipoxygenase in rat basophilic leukemia cells (5-HETE and LTB4 formation from [14C]-arachidonic acid); format: cell-based; conditions: indomethacin 10 μM, A 23187, room temperature, 5 minutes, read-out: IC50 for inhibition of 5-lipoxygenase (I)
# T2 construct: endogenous in cells; host or cells: rat basophilic leukemia cells
# T2 sequence (P12527 1-673): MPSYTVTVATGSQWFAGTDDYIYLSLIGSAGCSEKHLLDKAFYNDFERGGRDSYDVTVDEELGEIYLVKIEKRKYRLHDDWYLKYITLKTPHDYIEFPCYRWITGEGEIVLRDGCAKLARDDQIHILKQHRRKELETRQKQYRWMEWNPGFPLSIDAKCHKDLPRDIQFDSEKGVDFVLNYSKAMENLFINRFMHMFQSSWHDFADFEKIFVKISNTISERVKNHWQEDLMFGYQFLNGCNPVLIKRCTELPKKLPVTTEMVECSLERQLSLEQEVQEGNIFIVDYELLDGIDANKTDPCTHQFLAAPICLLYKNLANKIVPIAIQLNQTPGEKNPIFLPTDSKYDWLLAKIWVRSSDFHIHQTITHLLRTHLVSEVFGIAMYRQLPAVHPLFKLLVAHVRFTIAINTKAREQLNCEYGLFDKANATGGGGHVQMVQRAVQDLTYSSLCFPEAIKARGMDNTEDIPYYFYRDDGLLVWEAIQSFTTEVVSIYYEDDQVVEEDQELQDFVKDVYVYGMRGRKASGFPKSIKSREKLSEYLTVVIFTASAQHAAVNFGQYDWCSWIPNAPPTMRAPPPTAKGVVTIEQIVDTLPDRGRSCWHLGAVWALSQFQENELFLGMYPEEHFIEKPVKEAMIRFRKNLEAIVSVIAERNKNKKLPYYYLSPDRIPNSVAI
# Protocol: To determine the inhibition of 5-lipoxygenase rat basophilic leukemia cells were cultured in vitro, and after a cell concentration of about 10^6 cells/ml had been obtained, the cells were harvested by centrifugation at 400 g. The precipitate was suspended in 50 mM potassium phosphate buffer of pH 7.4 at 1.5×10^7 cells/ml.
# To 1 ml each of this suspension there was added indomethacin (10 μM) and calcium chloride (2 mM) and then the mixture was incubated in presence or absence of a test compound with [^14 C]-arachidonic acid and the calcium ionophore A 23 187 [Chaney et al., J. Am. Chem. Soc. 96: 1932-3 (1974)] at room temperature for 5 minutes. The mixture was acidified to pH 5 and extracted with ethyl acetate to isolate the metabolites of arachidonic acid formed by the enzymatic action of 5-lipoxygenase. These were separated by thin layer chromatography using a solvent mixture known to be suitable for leukotriene analysis [c.f. Jakschik et al., Biochem. Biophys. Res. Commun. 102, 624 (1984)]. The distribution of the radioactivity among the different metabolites was measured with a Thin Layer Scanner (TLC linear analyzer). By bringing into relationship the percentages of the amount of 5-hydroxyeicosatetraenoic acid (5-HETE) and leukotriene B4 (LTB4) formed under the action of 5-lipoxygenase to the amount or the concentration, respectively, of the total radioactivity used and of the test compound of formula I the "IC50 -value I" (i.e. the concentration of the test compound which causes an 50%-inhibition of the 5-lipoxygenase) is determined.
# Sprague-Dawley-rats [1] = assay: Inhibition of kaolin-induced paw oedema, test compound given intraperitoneally three hours after induction; format: in vivo; conditions: for % Inhibition (Maximum) of oedema: 3 h after kaolin, more than 100% = decrease below initial value
# Protocol: By subplantar injection of 0.1 ml of a kaolin suspension (100 mg/ml) into Sprague-Dawley-rats, an oedema is induced and the paw volume is measured plethysometrically every hour. Three hours after the induction of the oedema a suspension of the respective test compound in a 1% carboxymethylcellulose sodium solution (5 ml/kg body weight of the animal) is administered intraperitoneally. In table 2 the percentage of alteration in the paw volume due to the inhibition of the oedema by the test compound in relation to the volume determined immediately before the test compound was applied (i.e. the initial value) is shown. (FIGS. of more than 100% indicate a decrease in the volume of the oedema below the initial value): […]
# Sprague-Dawley-rats [2] = assay: Inhibition of kaolin-induced paw oedema, test compound injected in each paw simultaneously with kaolin; format: in vivo; conditions: 1 mg injected in each paw simultaneously with kaolin
# Protocol: By subplantar injection of 0.1 ml of a kaolin suspension (100 mg/ml) into Sprague-Dawley-rats, an oedema is induced and the paw volume is measured plethysometrically every hour. Three hours after the induction of the oedema a suspension of the respective test compound in a 1% carboxymethylcellulose sodium solution (5 ml/kg body weight of the animal) is administered intraperitoneally. In table 2 the percentage of alteration in the paw volume due to the inhibition of the oedema by the test compound in relation to the volume determined immediately before the test compound was applied (i.e. the initial value) is shown. (FIGS. of more than 100% indicate a decrease in the volume of the oedema below the initial value):
# In other experiments the test compound was administered simultaneously with the application of the kaolin suspension by injection of 1 mg of the test compound dissolved in 0.1 ml of a 1% carboxymethylcellulose sodium solution in each paw. The following maximum values of inhibition of the oedema or the formation of the oedema, respectively, were determined: […]
SMILES,Quotient IC50 II/IC50 I (cyclooxygenase),IC50 (cyclooxygenase) [µM],IC50 (5-lipoxygenase) [µM],Time after administration of the test compound (of maximum inhibition) (Sprague-Dawley-rats [1]; 100.0 mg/kg intraperitoneally) [h],% Inhibition (Maximum) of oedema (Sprague-Dawley-rats [1]; 100.0 mg/kg intraperitoneally) [%],% Inhibition (Maximum) of oedema (Sprague-Dawley-rats [2]) [%],Time after administration of the test compound (of maximum inhibition) (Sprague-Dawley-rats [2]) [h],Time after administration of the test compound (of maximum inhibition) (Sprague-Dawley-rats [1]; 46.4 mg/kg intraperitoneally) [h],% Inhibition (Maximum) of oedema (Sprague-Dawley-rats [1]; 46.4 mg/kg intraperitoneally) [%]
"Oc1ccc(/C=C\CCCCCC/C=C/C(O)C2CCCCC2)cc1O (stereo not shown) [Example 22d, 11-Cyclohexyl-1-(3',4'-dihydroxyphenyl)-11-hydroxy-undeca-1Z,9E-diene]",64.3,180,2.8,,,,,,
"Oc1ccc(C#CCCCCCCC#CC(O)C2CCCCC2)cc1O (stereo not shown) [Example 16, 11-Cyclohexyl-1-(3',4'-dihydroxyphenyl)-11-hydroxy-undeca-1,9-diyne]",132.1,37,0.28,1,54,45,7,,
"CC(C)(O)C#CCCCCCCC#Cc1ccc(O)c(O)c1 [Example 13, 1-(3',4'-Dihydroxyphenyl)-11-hydroxy-11-methyl-dodeca-1,9-diyne]",88.6,31,0.35,,,,,,
"OCC#CCCCCCCC#Cc1ccc(O)c(O)c1 [Example 7, 1-(3',4'-Dihydroxyphenyl)-11-hydroxy-undeca-1,9-diyne]",253.3,38,0.15,1,164,36,2,1,65
"CCCCCC(O)C#CCCCCCCC#Cc1ccc(O)c(O)c1 (stereo not shown) [Example 14, 1-(3',4'-Dihydroxyphenyl)-11-hydroxy-hexadeca-1,9-diyne]",119.1,25,0.21,2,127,46,2,1,68
"Oc1ccc(C#CCCCCCC/C=C/C(O)C2CCCCC2)cc1O (stereo not shown) [Example 22c, 11-Cyclohexyl-1-(3',4'-dihydroxphenyl)-11-hydroxy-undec-9E-en-1-yne]",44.8,130,2.9,,,,,,
"OC/C=C\CCCCCC/C=C\c1ccc(O)c(O)c1 [Example 9, 1-(3',4'-Dihydroxyphenyl)-11-hydroxy-undeca-1Z,9Z-diene]",90.3,28,0.31,,,,,,
"COc1cc(C#CCCCCCCC#CCO)cc(OC)c1O [Example 18, 1-(3',5'-Dimethoxy-4'-hydroxyphenyl)-11-hydroxy-undeca-1,9-diyne]",380.0,38,0.1,,,,,,
"Oc1ccc(C#CCCCCCCC#CC(O)c2ccccc2)cc1O (stereo not shown) [Example 15, 1-(3',4'-Dihydroxyphenyl)-11-hydroxy-11-phenyl-undeca-1,9-diyne]",> 320.0,> 100,0.32,2,73,64,5,,
"COc1cc(C#CCCCCCCC#CCO)ccc1O [Example 5, 11-Hydroxy-1-(4'-hydroxy-3'-methoxyphenyl)-undeca-1,9-diyne]",,,,,,61,3,,
